US7868204B2, “Inhibitors of histone deacetylase” (MethylGene Inc., priority 2001, dated 2011)
Like-named read-outs stand apart in the source and are kept apart here.

Tests used:
[1] = tested on: HCT116 cells; assay: MTT assay; assay type: cell-based; details: Homo sapiens
Method in brief: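 Read-out: MTT (0.5 mg/ml final, 4 h) after solubilization in 50% DMF/20% SDS, pH 4.7, with OD translated into cell number via the line's growth curve. Compound treatment lasted 72 h at 37 °C in 5% CO2, starting a day after plating.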

[2] = molecular target: HDAC-1 (Homo sapiens, UniProt Q13547); assay: Human HDAC-1 enzyme inhibition, Assay 2 (Boc-Lys(Ac)-AMC, Fluor-de-Lys fluorescence; compounds 604-617); assay type: biochemical; details: read-out: HDAC1 IC50
Chain of HDAC-1 (Q13547 whole entry): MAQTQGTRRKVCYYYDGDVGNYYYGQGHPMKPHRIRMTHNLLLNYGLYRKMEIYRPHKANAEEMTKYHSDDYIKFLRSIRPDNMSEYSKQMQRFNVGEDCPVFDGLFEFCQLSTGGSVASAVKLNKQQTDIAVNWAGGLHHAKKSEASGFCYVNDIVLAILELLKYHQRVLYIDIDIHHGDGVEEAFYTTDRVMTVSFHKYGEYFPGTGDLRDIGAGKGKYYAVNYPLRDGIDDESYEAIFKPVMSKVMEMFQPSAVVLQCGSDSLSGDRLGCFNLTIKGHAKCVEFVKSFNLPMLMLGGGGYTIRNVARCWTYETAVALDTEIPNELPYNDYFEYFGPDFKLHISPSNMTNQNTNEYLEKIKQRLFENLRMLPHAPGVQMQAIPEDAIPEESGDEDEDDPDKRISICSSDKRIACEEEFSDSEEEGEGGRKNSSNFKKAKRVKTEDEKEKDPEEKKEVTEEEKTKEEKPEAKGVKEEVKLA
Description: Assay 2. The following protocol was also used to assay the compounds of the invention. In the assay, the buffer used was 25 mM HEPES, pH 8.0, 137 mM NaCl, 2.7 mM […], 1 mM MgCl2 and the substrate was Boc-Lys(Ac)-AMC in a 50 mM stock solution in DMSO. The enzyme stock solution was 4.08 μg/mL in buffer. The compounds were pre-incubated (2 μl in DMSO diluted to 13 μl in buffer for transfer to assay plate) with enzyme (20 μl of 4.08 μg/ml) for 10 minutes at room temperature (35 μl pre-incubation volume). The mixture was pre-incubated for 5 minutes at room temperature. The reaction was started by bringing the temperature to 37° C. and adding […] substrate. Total reaction volume was 50 μl. […] A plate was incubated in the dark for 10 minutes at room temperature before reading (λEx=360 nm, λEm=470 nm, Cutoff filter at 435 nm). Assay 2 was used to measure HDAC activity of compounds 604-617 (Table 5). HDAC activity of the remaining compounds was measured by assay 1.

[3] = tested on: acetylated histone H-4 in T24 human bladder cancer cells; assay: Histone H4 acetylation in whole cells by immunoblots; assay type: cell-based; details: 16 h
Method in brief: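 Acetylated histone H4 was quantified by densitometry of ECL-developed immunoblots, probed with a polyclonal antibody, of […] total histone from T24 cultures exposed 16 h to HDAC inhibitors.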

[4] = molecular target: T1, cloned recombinant human HDAC-1 (Homo sapiens, UniProt Q13547); assay: Human HDAC-1 enzyme inhibition, Assay 1 ([3H]-acetylated histone substrate, scintillation counting); assay type: biochemical
T1 construct: made in house; host or cells: Baculovirus insect cell expression system
T1 sequence (Q13547 whole entry): as above
Method in brief: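 Activity read as [3H]-acetic acid liberated from labeled substrate, ethyl acetate-extracted and scintillation-counted. Compounds preincubated 30 min at 4° C. with baculovirus-expressed, purified human HDAC-1. Dose-response curves give IC50 as concentration producing fifty percent of maximal inhibition.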

[5] = HCT-116, 72 h, Table 5F, HCT116 cells, 72 hours
[6] = T-24, Table 5F, read-out: H4 Ac (T24) EC50
[7] = Table 5F, read-out: Human HDAC-1 IC50
[8] = HCT-116, 72 h, Table 5a, HCT116 cells, 72 hours
[9] = T-24, Table 5a, read-out: H4Ac (T24) EC50
[10] = Table 5a, read-out: Human HDAC-1 IC50
[11] = HCT-116, 72 h, Table 5E, HCT116 cells, 72 hours
[12] = T-24, Table 5E, read-out: H4 Ac (T24) EC50
[13] = Table 5E, read-out: Human HDAC-1 IC50

| IC50 [1, 5] [nM] | EC50 [3, 6] [nM] | IC50 [4, 7] [nM] | also measured | Compound |
| --- | --- | --- | --- | --- |
|  |  |  | IC50 ([1]; HCT-116, HCT116 cells): 1000 nM; IC50 [2]: 639 nM | Nc1ccccc1NC(=O)c1ccc(N2CC[C@@H](Oc3cccnc3)C2)cc1 [compound 607, (R)-N-(2-aminophenyl)-4-(3-(pyridin-3-yloxy)pyrrolidin-1-yl)benzamide] |
|  |  |  | IC50 ([1]; HCT-116, HCT116 cells): 700 nM; IC50 [2]: 107 nM | Nc1ccccc1NC(=O)c1ccc(N2CC[C@H](Oc3ccc([N+](=O)[O-])cc3)C2)cc1 [compound 616, (S)-N-(2-aminophenyl)-4-(3-(4-nitrophenoxy)pyrrolidin-1-yl)benzamide] |
|  |  |  | IC50 ([1]; HCT-116, HCT116 cells): 2000 nM; IC50 [2]: 1220 nM | Nc1ccccc1NC(=O)c1ccc(N2CC[C@@H](Nc3ccccc3)C2)cc1 [compound 609, (R)-N-(2-aminophenyl)-4-(3-(phenylamino)pyrrolidin-1-yl)benzamide] |
|  |  |  | IC50 ([1]; HCT-116, HCT116 cells): 39000 nM; IC50 [2]: 815 nM | Nc1ccccc1NC(=O)c1ccc(N2CC[C@H](Oc3ccc(C(=O)O)cc3)C2)cc1 [compound 612, (S)-4-(1-(4-(2-aminophenylcarbamoyl)phenyl)pyrrolidin-3-yloxy)benzoic acid] |
|  |  |  | IC50 ([1]; HCT-116, HCT116 cells): 4000 nM; IC50 [2]: 1380 nM | Nc1ccccc1NC(=O)c1ccc(N2CC[C@H](Oc3ccc(Oc4ccccc4)cc3)C2)cc1 [compound 615, (S)-N-(2-aminophenyl)-4-(3-(4-phenoxyphenoxy)pyrrolidin-1-yl)benzamide] |
|  |  |  | IC50 ([1]; HCT-116, HCT116 cells): 600 nM; IC50 [2]: 97.6 nM | COC(=O)c1ccc(O[C@H]2CCN(c3ccc(C(=O)Nc4ccccc4N)cc3)C2)cc1 [compound 611, (S)-methyl-4-(1-(4-(2-aminophenylcarbamoyl)phenyl)pyrrolidin-3-yloxy)benzoate] |
|  |  |  | IC50 ([1]; HCT-116, HCT116 cells): 750 nM; IC50 [2]: 266 nM | Nc1ccccc1NC(=O)c1ccc(N2CC[C@H](Oc3ccccc3)C2)cc1 [compound 610, (S)-N-(2-aminophenyl)-4-(3-phenoxypyrrolidin-1-yl)benzamide] |
| 400 | 1000 | 7000 |  | Nc1cscc1NC(=O)c1ccc(CNc2nc3ccc(OCCN4CCOCC4)cc3s2)cc1 [Cpd 573, N-(4-Amino-thiophen-3-yl)-4-{[6-(2-morpholin-4-yl-ethoxy)-benzothiazol-2-ylamino]-methyl}-benzamide] |
| 600 | 1000 | 4000 |  | COc1cc(CNc2ccc(C(=O)Nc3ccccc3N)cc2)cc(OC)c1 [Cpd 393, N-(2-Amino-phenyl)-4-(3,5-dimethoxy-benzylamino)-benzamide] |
| 800 | 3000 | 3000 |  | COc1ccc(NCc2ccc(C(=O)Nc3cscc3N)cc2)cc1OC [424c, N-(4-Aminothiophen-3-yl)-4-[(3,4-dimethoxyphenylamino)-methyl]-benzamide] |
| 400 | 2000 | 4000 |  | Nc1ccccc1NC(=O)c1ccc(CNc2ncc(Br)s2)cc1 [Cpd 467, N-(2-Amino-phenyl)-4-[(5-bromo-thiazol-2-ylamino)-methyl]-benzamide] |
| 400 | 2000 | 4000 |  | Nc1ccccc1NC(=O)c1ccc(Cc2noc(-c3cccnc3)n2)cc1 [Cpd 357, N-(2-Amino-phenyl)-4-(5-pyridin-3-yl-[1,2,4]oxadiazol-3-ylmethyl)-benzamide] |
|  |  |  | IC50 [1, 8]: 1000 nM; EC50 [3, 9]: 1000 nM; IC50 [4, 10]: 900 nM | Nc1ccccc1NC(=O)c1ccc(CNc2nc(NC3CC3)nc(NC3Cc4ccccc4C3)n2)cc1 [Cpd 19] |
| 900 | 3000 | 1000 |  | Nc1ccccc1NC(=O)c1ccc(CSc2cccc3cccnc23)cc1 [Cpd 391, N-(2-Amino-phenyl)-4-(quinolin-8-ylsulfanylmethyl)-benzamide] |
|  |  |  | IC50 [1, 11]: 5000 nM; EC50 [3, 12]: 5000 nM; IC50 [4, 13]: 2000 nM | COc1cccc(-c2ccc(C(=O)Nc3ccccc3N)cc2)c1 [Cpd 166] |
| 5000 | 2000 | 2000 |  | Nc1ccccc1NC(=O)c1ccc(-c2cccc(CNCc3ccccn3)c2)cc1 [Cpd 187] |
| 100 | 1000 | 3000 |  | COc1ccc2nc(SCc3ccc(C(=O)Nc4ccccc4N)cc3)[nH]c2c1 [compound 376, N-(2-Amino-phenyl)-4-(5-methoxy-1H-benzimidazol-2-yl-sulfanylmethyl)-benzamide] |
|  |  |  | IC50 ([1]; HCT-116, Table 5d, HCT116 cells, 72 hours): 600 nM; EC50 ([3]; T-24, Table 5d, read-out: H4Ac(T24) EC50): 2000 nM; IC50 ([4]; Table 5d, read-out: HDAC-1 IC50): 6000 nM | COc1cc(NCc2ccc(/C=C/C(=O)Nc3cscc3N)cc2)cc(OC)c1OC [Cpd 570] |
|  |  |  | IC50 ([1]; HCT-116, 72 h, Table 5b, HCT116 cells, 72 hours): 600 nM; EC50 ([3]; T-24, Table 5b, read-out: H4Ac (T24) EC50): 2000 nM; IC50 ([4]; Table 5b, read-out: Human HDAC-1 IC50): 400 nM | Nc1nc(NC2Cc3ccccc3C2)nc(OCc2ccc(C(=O)Nc3ccccc3N)cc2)n1 [Cpd 207] |
| 400 | 1000 | 3000 |  | CSc1ccc(NCc2ccc(C(=O)Nc3ccccc3N)cc2)cc1 [Cpd 437] |
| 700 | 5000 | 2000 |  | Nc1ccccc1NC(=O)c1ccc(COc2ccc3ccccc3n2)cc1 [Cpd 396, N-(2-Amino-phenyl)-4-(quinolin-2-yloxymethyl)-benzamide] |
| 300 | 2000 | 3000 |  | COCCN1C(=O)c2ccc(NCc3ccc(C(=O)Nc4ccccc4N)cc3)cc2C1=O [Cpd 458, N-(2-Amino-phenyl)-4-([2-(2-methoxy-ethyl)-1,3-dioxo-2,3-dihydro-1H-isoindol-5-ylamino]-methyl}-benzamide] |
| 1000 | 3000 | 500 |  | Nc1ccccc1NC(=O)c1ccc(CNc2cccc(OC(F)(F)F)c2)cc1 [Cpd 423, N-(2-Amino-phenyl)-4-[(3-trifluoromethoxy-phenylamino)-methyl]-benzamide] |
| 400 | 1000 | 3000 |  | COc1ccc(-c2cc(Cl)nc(NCc3ccc(C(=O)Nc4ccccc4N)cc3)n2)cc1OC [Cpd 439] |
|  |  |  | IC50 [1, 11]: 400 nM; EC50 [3, 12]: 1000 nM; IC50 [4, 13]: 400 nM | Nc1ccccc1NC(=O)c1ccc(Cn2nnc3ccccc3c2=O)cc1 [Cpd 155, N-(2-Amino-phenyl)-4-(4-oxo-4H-benzo[d][1,2,3]triazin-3-ylmethyl)-benzamide] |
| 400 | 1000 | 4000 |  | COc1ccc(N(Cc2ccc(C(=O)Nc3ccccc3N)cc2)C(=O)Nc2ccccc2)cc1OC [Cpd 373, N-(2-Amino-phenyl)-4-[1-(3,4-dimethoxy-phenyl)-3-phenyl-ureidomethyl]-benzamide] |
| 300 | 5000 | 500 |  | Nc1ccccc1NC(=O)c1ccc(CNc2nc(-c3ccc(Cl)cc3)cs2)cc1 [Cpd 321, N-(2-Amino-phenyl)-4-{[4-(4-chloro-phenyl)-thiazol-2-ylamino]-methyl}-benzamide] |
| 1000 | 5000 | 400 |  | Nc1ccccc1NC(=O)c1ccc(CNc2nc(Cl)nc3[nH]cnc23)cc1 [Cpd 332, N-(2-Amino-phenyl)-4-[(2-chloro-9H-purin-6-ylamino)-methyl]-benzamide] |
|  |  |  | IC50 [1, 8]: 300 nM; EC50 [3, 9]: 1000 nM; IC50 [4, 10]: 500 nM | Nc1nc(NCCc2ccccc2)nc(NCc2ccc(C(=O)Nc3ccccc3N)cc2)n1 [Cpd 20, 4-[(4-Amino-6-phenethylamino-[1,3,5]triazin-2-ylamino)-methyl]-N-(2-amino-phenyl)-benzamide] |
| 300 | 1000 | 900 |  | COc1ccc2nc(NCc3ccc(C(=O)Nc4ccccc4N)cc3)sc2c1 [Cpd 233] |
